Usually IC50 stands for the concentration that inhibits the measured activity by half. Read a low IC50 as inhibition by little substance. The Ki is a measure of affinity in units of concentration, obtained from inhibition or displacement.

From article PMC6629088, “Substituted anthraquinones represent a potential scaffold for DNA methyltransferase 1-specific inhibitors” (PLoS ONE, 2019) come the findings set out here.

Holding throughout (format): biochemical
Assay [1] has as its target T1, DNA methyltransferase 1 (RFTS(-) DNMT1) (Homo sapiens, UniProt P26358).
T1 construct: RFTS(-) DNMT1 (amino acids 621–1616)
Put plainly: endonuclease-coupled DNA methylation assay (IC50); supported by DSF (+[…] °C), FP DNA competition and detergent test.

In assay [2] the target is T1, DNA methyltransferase 1 (RFTS(-) DNMT1). The assay can be described thus: endonuclease-coupled DNA methylation kinetics (Ki); IC50 […]; supported by DSF (+[…] °C), FP DNA competition and detergent test.
Another assay addresses T2, DNMT3a (Homo sapiens, UniProt Q9Y6K1).
T2 construct: C-terminal catalytic domain of DNMT3a (amino acids 611–912)
Put plainly: endonuclease-coupled DNA methylation assay, single concentration […] ([…] activity remaining). The conditions noted are these: read-out: DNMT3a catalytic domain.

T1 sequence (P26358 621-1616): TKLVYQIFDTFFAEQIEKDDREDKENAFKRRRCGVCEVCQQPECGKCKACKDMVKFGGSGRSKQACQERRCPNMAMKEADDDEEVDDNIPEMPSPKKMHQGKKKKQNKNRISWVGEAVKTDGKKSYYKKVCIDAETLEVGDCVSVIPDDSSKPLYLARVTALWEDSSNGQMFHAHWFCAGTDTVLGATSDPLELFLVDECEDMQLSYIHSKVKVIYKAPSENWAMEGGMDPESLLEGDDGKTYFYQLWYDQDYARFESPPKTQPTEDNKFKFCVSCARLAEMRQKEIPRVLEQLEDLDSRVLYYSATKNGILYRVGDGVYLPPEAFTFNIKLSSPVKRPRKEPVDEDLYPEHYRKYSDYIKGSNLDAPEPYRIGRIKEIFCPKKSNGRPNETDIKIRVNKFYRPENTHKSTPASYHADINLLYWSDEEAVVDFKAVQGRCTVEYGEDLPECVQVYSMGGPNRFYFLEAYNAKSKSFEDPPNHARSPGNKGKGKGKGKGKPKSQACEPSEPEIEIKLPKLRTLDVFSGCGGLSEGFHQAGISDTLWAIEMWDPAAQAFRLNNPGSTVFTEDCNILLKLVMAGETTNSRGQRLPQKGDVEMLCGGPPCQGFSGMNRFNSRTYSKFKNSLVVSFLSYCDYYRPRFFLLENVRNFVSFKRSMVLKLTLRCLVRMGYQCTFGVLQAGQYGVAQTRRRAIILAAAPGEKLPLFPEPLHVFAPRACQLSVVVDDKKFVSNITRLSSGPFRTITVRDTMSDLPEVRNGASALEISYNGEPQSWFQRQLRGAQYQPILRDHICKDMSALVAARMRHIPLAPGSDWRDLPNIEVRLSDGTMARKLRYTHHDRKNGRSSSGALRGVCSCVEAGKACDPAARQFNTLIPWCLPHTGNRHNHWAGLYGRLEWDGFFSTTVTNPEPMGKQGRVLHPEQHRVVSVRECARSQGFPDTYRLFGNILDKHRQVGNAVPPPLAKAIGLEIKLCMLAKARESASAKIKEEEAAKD
T2 sequence (Q9Y6K1 611-912): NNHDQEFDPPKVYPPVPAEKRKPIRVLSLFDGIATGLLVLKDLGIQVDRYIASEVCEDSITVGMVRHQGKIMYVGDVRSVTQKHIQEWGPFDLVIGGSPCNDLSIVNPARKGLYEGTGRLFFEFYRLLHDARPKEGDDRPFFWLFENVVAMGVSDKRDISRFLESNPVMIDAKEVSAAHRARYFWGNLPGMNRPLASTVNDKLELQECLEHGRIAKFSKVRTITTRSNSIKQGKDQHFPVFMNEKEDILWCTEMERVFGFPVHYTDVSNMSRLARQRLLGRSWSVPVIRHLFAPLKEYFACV

Take `Cc1ccc(NC(=O)c2ccc3c(c2O)C(=O)c2ccccc2C3=O)cc1` [A11]: in assay [1], the IC50 worked out at 59 ± 10 µM.
`COc1cc(C(=O)Nc2ccc3c(c2)C(=O)c2ccccc2C3=O)cc(OC)c1OC` [A13]: the Ki in assay [2] amounted to 13 ± 3 µM.
On to `CC(=O)NCCc1ccc(O)c(-c2c(O)c(O)c3c(c2O)C(=O)c2c(cc(O)c(C(=O)O)c2C(=O)O)C3=O)c1` [LCA, laccaic acid A], for which the activity at 100 µM at DNMT3a came out at 32 ± 1%.
